ChEMBL document CHEMBL5726158, “5H-pyrido[3,2-B]indole compounds as anticancer agents” (2019)

Biological target: Bromodomain-containing protein 4 (Homo sapiens, UniProt O60885)
Assay: Time Resolved Fluorescence Resonance Energy Transfer (TR-FRET) Assay: The binding of compounds to bromodomain BRD4 (44-168), BRD4 (333-460), and BRD4 (1-477 or 44-460) was assessed using a time resolved fluorescent resonance energy transfer binding assay (1), that measures the binding of a fluorescently labeled probe molecule to the bromodomain protein. The bromodomain protein, fluorescent probe molecule (either a biotinylated histone peptide or a fluorescently labeled small molecule), and dose-responsed test compound are incubated together to reach thermodynamic equilibrium. In the absence of a test compound, the bromodomain and small molecule are bound, resulting in a high fluorescent signal. In the presence of a sufficient concentration of inhibitor, this interaction is disrupted resulting in a lost of fluorescent resonance energy transfer.All assay components were dissolved in buffer composition 20 mM Hepes pH 7.5, 150 mM NaCl, 5 mM DTT, 0.005% Tween 20, and 100 ug/ml BSA for BRD4 (1-477 and 44-460). The final concentrations of the bromodomain proteins are 1.6 nM BRD4(44-168), 1 nM BRD4(333-460), and 1 nM BRD4(1-477 or 44-460), and the fluorescent probe molecule is 100 nM, 50 nM, and 7.5 nM respectively. All proteins were biotinylated. […]

SMILES: Cc1nnn(C)c1-c1cnc2c3cc(C4CCN(C(=O)OC(C)(C)C)CC4)ccc3n([C@H](c3ccccc3)C3CCOCC3)c2c1
- IC50: < 5 nM
